Values quoted from earlier work, collected in PMC11600176 (JACS Au, 2024).

Settings: aerated acetonitrile

Φf fluorescence quantum yield of the standard: 0.48
SMILES: CCCN1C(=O)c2cccc3c(N)ccc(c23)C1=O [N-propyl-4-amino-1,8-naphthalimide]
